Experimental data published in patent US6353124B1, “Therapeutic compound-fatty acid conjugates” (priority 1993, dated 2002).
Like-named read-outs stand apart in the source and are kept apart here.

Experiments:
sunburn erythema [1] = settings: 2.5% in propylene glycol:ethanol:dimethylacetamide (19:19:2), 3 MED of UV light, guinea-pigs; cited from earlier work
sunburn erythema [2] = settings: 2.5% in propylene glycol:ethanol:dimethylacetamide (19:19:2), 3 MED of UV light, humans; cited from earlier work
UVB induced burns = assay: Effect on UVB induced burns in mice, topical application; type: in vivo
Method: (§1) Method Groups of 3 female mice were exposed to 3 MED of UVB on their dorsal surface and then were immediately painted (by smoothing the topical solution over the dorsal surface) with 60 μl or 100 μl of vehicle or vehicle containing increasing concentrations of NSAID's or NSAID fatty acid conjugates. The vehicle used was a variation of previously published vehicles and consisted of ethanol:DMSO at a 5:1 ratio. The test NSAID's and their conjugates were either applied after UVB irradiation to reduce the possibility of sun-screening effects (Day 0), or 1 to 5 days prior to UVB exposure. The oedema was then determined by measuring the skin fold thickness (SFT) of a folded mid-dorsal piece of skin using a hand-held micrometer. Measurements were taken at 0 hours, just prior to UVB exposure and at 24 hours post UVB exposure. A control group, painted with 60 or 100 μl of the vehicle, was used to determine the increase in skin oedema due to the inflammatory response. […] The pre UVB SFT measurement was subtracted from the 24 hour SFT measurement, to determine the Net Skin Fold Thickness increase (NSFT).
Individual scores are presented for each mouse ie a result indicated as 5,4,3 is interperated as the first mouse having a severe burn, the second mouse a moderate to severe burn and the third mouse a moderate burn.

Skh-1 mouse = assay: Toxicity and tolerability of topically applied indomethacin in Skh-1 mice; type: in vivo; settings: painted on dorsal surface, range 0.1% to 2.5% tested
Method: as §1
As a preliminary study the ability of indomethacin to protect against oedema in Skh-1 mouse was determined. Indomethacin over a concentration range from 0.1% to 2.5% was applied after the mice had been irradiated with UVB; non-irradiated controls were also run. […]

UVB induced oedema = UVB induced oedema (net skin fold thickness increase) in SKH-1 hairless mice, topical application; type: in vivo; settings: for Immediate Activity Results, highest to lowest (ranking): painted after 3 MED UVB, 4% ibuprofen equivalent (Ibu-ATP3 at 2%), FIG. 5; for effect on oedema at 2%: 2% ibuprofen, as the conjugate or as the free drug; for photoprotection against UVB induced oedema against interval of application: crude 2% (30% purity, contaminated with GTP2), 100 μl, days -5 to 0, FIG. 3
Method: The vehicle used was a variation of previously published vehicles and consisted of ethanol:DMSO at a 5:1 ratio. […] The oedema was then determined by measuring the skin fold thickness (SFT) of a folded mid-dorsal piece of skin using a hand-held micrometer. Measurements were taken at 0 hours, just prior to UVB exposure and at 24 hours post UVB exposure. A control group, painted with 60 or 100 μl of the vehicle, was used to determine the increase in skin oedema due to the inflammatory response. […] The pre UVB SFT measurement was subtracted from the 24 hour SFT measurement, to determine the Net Skin Fold Thickness increase (NSFT).

**Q.** Which results are given for `COc1ccc2c(c1)c(CC(=O)O)c(C)n2C(=O)c1ccc(Cl)cc1` [indomethacin, 1-(4-Chlorobenzoyl)-5-methoxy-2-methyl-1H-indole-3-acetic acid]?
**A.** protection against sunburn erythema (sunburn erythema [1]): total protection; protection against sunburn erythema (sunburn erythema [2]): total protection; effect on burn repair (UVB induced burns; indomethacin levels that prevent oedema): little or no effect on burn repair; topical concentration lethal after 36 hours (gastrointestinal haemorrhage) (Skh-1 mouse): ≥ 2%; anti-inflammatory effect at 0.1% (UVB induced oedema; 0.1% applied after UVB, 24 hours): mild anti-inflammatory effect; erythema and oedema with concentration (UVB induced oedema; 0.1% to 2.5% applied after UVB): decrease in erythema and oedema with increasing concentrations; protection against UVB induced oedema, applied 3 days prior to UVB (UVB induced oedema; 1% indomethacin, 3 days prior to exposure, FIG. 2): approximately 50%; protection against UVB induced oedema, applied 5 days prior to UVB (UVB induced oedema; 1% indomethacin, 5 days prior to exposure, FIG. 2): not present; protective effect on UVB induced oedema against interval of application (UVB induced oedema; 100 μl of 1% solution, days -5 to -1 before UVB and Day 0, NSFT at 24 hours, FIG. 2): loses its protective effect on UVB induced oedema as the interval of application prior to exposure increases; concentration giving maximal protection against erythema and oedema (UVB induced oedema; applied after UVB, 24 hours, range 0.1% to 2.5%): ≥ 1%

**Q.** Which “Immediate Activity Results, highest to lowest (ranking)” value (“Immediate Activity Results, highest” for short) (UVB induced oedema) does the source give for ibuprofen-alanine-Tris [Ibu-AT] here?
**A.** The value was 4% Ibu=4% Ibu-ATP>4% Ibu-ATP2>4% Ibu-AT=2% Ibu-ATP3.

**Q.** With “ibuprofen-alanine-Tris-monopalmitate [Ibu ATP1]” as the molecule, how does the “protective effect on UVB induced burns” value (UVB induced burns; 2%, painted after 3 MED UVB, compared with unmodified ibuprofen) read?
**A.** The value was “protective effect on UVB induced burns to a much greater extent than unmodified ibuprofen”.

**Q.** And the “effect on oedema at 2%” value (UVB induced oedema)?
**A.** Its value is “little effect on oedema”.

**Q.** And the “Immediate Activity Results, highest” value (UVB induced oedema)?
**A.** The value was 4% Ibu=4% Ibu-ATP>4% Ibu-ATP2>4% Ibu-AT=2% Ibu-ATP3.

**Q.** Which results are given for “indomethacin-glycine-Tris-dipalmitate [Indo-GTP2]”?
**A.** photoprotection against UVB induced oedema against interval of application (UVB induced oedema): most protective 5 days prior to irradiation with UVB; photoprotection against UVB induced oedema against interval of application (UVB induced oedema; listed as indomethacin-glycine-Tris-dipalmitate): most pronounced at 5 days prior to exposure with UVB; prolonged and immediate protective activity against UVB induced oedema (UVB induced oedema; high purity, 2% (indomethacin equivalent), painted 5 days prior to or immediately after UVB, compared with Indo-GTP3, Indo-EP1, Indo-GEP1, FIG. 4): highest levels of prolonged and immediate activity

**Q.** For “ibuprofen-alanine-Tris-dipalmitate [Ibu-ATP2]”, which “Immediate Activity Results, highest” value (UVB induced oedema) is on record?
**A.** The value was 4% Ibu=4% Ibu-ATP>4% Ibu-ATP2>4% Ibu-AT=2% Ibu-ATP3.

**Q.** With “α-Methyl-4-(2-methylpropyl)benzene acetic acid [Ibu cont]” as the molecule, how does the “effect on oedema at 2%” value (UVB induced oedema) read?
**A.** Its value is “little effect on oedema”.

**Q.** And the “Immediate Activity Results, highest” value (UVB induced oedema)?
**A.** Its value is 4% Ibu=4% Ibu-ATP>4% Ibu-ATP2>4% Ibu-AT=2% Ibu-ATP3.

**Q.** For “ibuprofen-alanine-Tris-tripalmitate [Ibu-ATP3]”, which “Immediate Activity Results, highest” value (UVB induced oedema) is on record?
**A.** The value was 4% Ibu=4% Ibu-ATP>4% Ibu-ATP2>4% Ibu-AT=2% Ibu-ATP3.
